This passage reports IC50, CC50 and viability results from US20250009742A1 (priority 2021, published 2025).

The term IC50 denotes the midpoint of a concentration-inhibition curve. As a reminder, the CC50 is the concentration giving 50% cytotoxicity. A lower CC50 goes with harm at low concentration.

Series [1] deals with intracellular HBV DNA. Briefly: Real-time PCR for intracellular HBV DNA in HepAD38 cells. The series is classed as cell-based. The conditions noted are these: Hepatitis B virus, HePAD38, 65 h, 65 hours treatment. (In general: Quantitative PCR measures a nucleic acid by following its amplification.)
The nature of series [2]: Cell viability assay (EZ-Cytox), cytotoxicity. The class given is cell-based. The conditions noted are these: human, HepAD38 cells; for viability at 65 h, 100 µM: read-out: Cytotoxicity % Livability (@100 μM). As to the method: HepAD38 cells were cultured for 2 days in Dulbecco's Modified Eagle's medium (Welgene, LM001-05) supplemented with 10% FBS without tetracycline. […] After 65 hours of treatment, viability was measured using EZ-Cytox cell viability assay kit (Daeil Lab Service) according to the manufacturer's instructions. The absorbance was measured at 450 nm using a spectrophotometer (Spark, Tecan).

In series [1], `COC12CC(N(Cc3cc(C(F)(F)F)[nH]n3)C(=O)Nc3cccc(C(F)F)c3)(C1)C2` [Example 181, 3-(3-(difluoromethyl)phenyl)-1-(3-methoxybicyclo[1.1.1]pentan-1-yl)-1-((5-(trifluoromethyl)-1H-pyrazol-3-yl)methyl)urea] gave an IC50 of 130 nM. In series [2], the CC50 at 65 h was over 100000 nM and the viability at 65 h, 100 µM was found to be 64.9%.

`CCOCCc1c(CN(C(=O)Nc2ccc(F)cc2)c2ccc(OC)nc2)n[nH]c1C(F)(F)F` [Example 182, 1-((4-(2-ethoxyethyl)-5-(trifluoromethyl)-1H-pyrazol-3-yl)methyl)-3-(4-fluorophenyl)-1-(6-methoxypyridin-3-yl)urea]: the IC50 in series [1] is over 1100 nM. Moreover, in series [2], the CC50 at 65 h is over 100000 nM and the viability at 65 h, 100 µM stood at 104%.

On to `COc1ncc(N(Cc2cc(C(F)(F)F)[nH]n2)C(=O)Nc2cnc(F)nc2)cn1` [Example 186, 3-(2-fluoropyrimidin-5-yl)-1-(2-methoxypyrimidin-5-yl)-1-((5-(trifluoromethyl)-1H-pyrazol-3-yl)methyl)urea], for which the IC50 in series [1] is over 1100 nM. Also, in series [2], the CC50 at 65 h is over 100000 nM and the viability at 65 h, 100 µM was found to be 86.4%.

In series [1], `COc1ncc(N(Cc2cc(C(F)(F)F)[nH]n2)C(=O)Nc2cc(F)ccn2)cn1` [Example 187, 3-(4-fluoropyridin-2-yl)-1-(2-methoxypyrimidin-5-yl)-1-((5-(trifluoromethyl)-1H-pyrazol-3-yl)methyl)urea] returned an IC50 of over 1100 nM. This compound had a CC50 at 65 h in series [2] of over 100000 nM.

In series [1], `COc1ccc(N(Cc2cc(C(F)(F)F)[nH]n2)C(=O)Nc2ccc(F)c(C(F)F)c2)cn1` [Example 188, 3-(3-(difluoromethyl)-4-fluorophenyl)-1-(6-methoxypyridin-3-yl)-1-((5-(trifluoromethyl)-1H-pyrazol-3-yl)methyl)urea] yielded an IC50 of 16 nM. Moreover, in series [2], the CC50 at 65 h was over 100000 nM and the viability at 65 h, 100 µM is 97.9%.

`COc1ncc(N(Cc2cc(C(F)(F)F)[nH]n2)C(=O)Nc2ccc(F)c(C(F)F)c2)cn1` [Example 189, 3-(3-(difluoromethyl)-4-fluorophenyl)-1-(2-methoxypyrimidin-5-yl)-1-((5-(trifluoromethyl)-1H-pyrazol-3-yl)methyl)urea] showed a 50% inhibitory concentration (IC50) in series [1] of 6.5 nM. In series [2], the half-maximal cytotoxic concentration (CC50) at 65 h was over 100000 nM and the viability at 65 h, 100 µM was 58%.

For `COc1ncc(N(Cc2cc(C(F)(F)F)[nH]n2)C(=O)Nc2cc(C(F)F)c(F)cn2)cn1` [Example 192, 3-(4-(difluoromethyl)-5-fluoropyridin-2-yl)-1-(2-methoxypyrimidin-5-yl)-1-((5-(trifluoromethyl)-1H-pyrazol-3-yl)methyl)urea], the IC50 in series [1] worked out at 59 nM. Further, in series [2], the CC50 at 65 h was over 100000 nM and the viability at 65 h, 100 µM turned out to be 104%.

`COc1ncc(N(Cc2n[nH]c(C(F)(F)F)c2CCO)C(=O)Nc2ccc(F)c(C(F)F)c2)cn1` [Example 193, 3-(3-(difluoromethyl)-4-fluorophenyl)-1-((4-(2-hydroxyethyl)-5-(trifluoromethyl)-1H-pyrazol-3-yl)methyl)-1-(2-methoxypyrimidin-5-yl)urea]: the IC50 in series [1] is 180 nM. In series [2], this compound returned a CC50 at 65 h of over 100000 nM.

Turning to `COc1ncc(N(Cc2n[nH]c(C(F)(F)F)c2Br)C(=O)Nc2ccc(F)c(C(F)F)c2)cn1` [Example 194, 1-((4-bromo-5-(trifluoromethyl)-1H-pyrazol-3-yl)methyl)-3-(3-(difluoromethyl)-4-fluorophenyl)-1-(2-methoxypyrimidin-5-yl)urea], in series [1], half-maximal inhibition (IC50) required 21 nM. This compound came in with a CC50 at 65 h in series [2] of over 100000 nM.

In series [1], `COc1ccc(N(Cc2cc(C(F)F)[nH]n2)C(=O)Nc2ccc(F)c(C(F)F)c2)nn1` [Example 195, 1-((5-(difluoromethyl)-1H-pyrazol-3-yl)methyl)-3-(3-(difluoromethyl)-4-fluorophenyl)-1-(6-methoxypyridazin-3-yl)urea] showed an IC50 of over 1100 nM. In series [2], the CC50 at 65 h is over 100000 nM and the viability at 65 h, 100 µM was determined as 100%.

With `COc1ncc(N(Cc2cc(C(F)F)[nH]n2)C(=O)Nc2ccc(F)c(C(F)F)n2)cn1` [Example 196, 1-((5-(difluoromethyl)-1H-pyrazol-3-yl)methyl)-3-(6-(difluoromethyl)-5-fluoropyridin-2-yl)-1-(2-methoxypyrimidin-5-yl)urea], in series [1], the IC50 was determined as 160 nM. Moreover, in series [2], the cytotoxic concentration (CC50) at 65 h was 76400 nM and the viability at 65 h, 100 µM turned out to be 29.2%.

For `COc1ncc(N(Cc2n[nH]c(C(F)F)c2Br)C(=O)Nc2ccc(F)c(C(F)F)c2)cn1` [Example 197, 1-((4-bromo-5-(difluoromethyl)-1H-pyrazol-3-yl)methyl)-3-(3-(difluoromethyl)-4-fluorophenyl)-1-(2-methoxypyrimidin-5-yl)urea], in series [1], the IC50 amounted to 19 nM. For the same compound, in series [2], the CC50 at 65 h was 79100 nM and the viability at 65 h, 100 µM came to 11.5%.

`COc1ncc(N(Cc2n[nH]c(C(F)F)c2C(C)(C)O)C(=O)Nc2ccc(F)c(C(F)F)c2)cn1` [Example 198, 1-((5-(difluoromethyl)-4-(2-hydroxypropan-2-yl)-1H-pyrazol-3-yl)methyl)-3-(3-(difluoromethyl)-4-fluorophenyl)-1-(2-methoxypyrimidin-5-yl)urea] came in with a half-maximal inhibitory concentration (IC50) in series [1] of over 1100 nM. Further, in series [2], the CC50 at 65 h was over 100000 nM and the viability at 65 h, 100 µM was determined as 102%.

Regarding `COc1ncc(N(Cc2n[nH]c(C(F)(F)F)c2CC(C)O)C(=O)Nc2ccc(F)c(C(F)F)c2)cn1` (stereo not drawn) [Example 199, 3-(3-(difluoromethyl)-4-fluorophenyl)-1-((4-(2-hydroxypropyl)-5-(trifluoromethyl)-1H-pyrazol-3-yl)methyl)-1-(2-methoxypyrimidin-5-yl)urea], the IC50 in series [1] was 750 nM. Further, in series [2], the CC50 at 65 h was over 100000 nM and the viability at 65 h, 100 µM was 95.7%.

In series [1], `COc1cc(N(Cc2cc(C(F)F)[nH]n2)C(=O)Nc2ccc(F)c(C(F)F)c2)cnn1` [Example 201, 1-((5-(difluoromethyl)-1H-pyrazol-3-yl)methyl)-3-(3-(difluoromethyl)-4-fluorophenyl)-1-(6-methoxypyridazin-4-yl)urea] had an IC50 of 28 nM. For the same compound, in series [2], the CC50 at 65 h was over 100000 nM and the viability at 65 h, 100 µM stood at 107%.

`COc1ncc(N(Cc2cc(C(F)(F)F)[nH]n2)C(=O)Nc2ccc(F)c(C(F)F)n2)cn1` [Example 202, 3-(6-(difluoromethyl)-5-fluoropyridin-2-yl)-1-(2-methoxypyrimidin-5-yl)-1-((5-(trifluoromethyl)-1H-pyrazol-3-yl)methyl)urea] yielded an IC50 in series [1] of 46 nM. Also, in series [2], the CC50 at 65 h is over 100000 nM and the viability at 65 h, 100 µM is 82.3%.

In the case of `COc1ncc(N(Cc2cc(C(F)(F)F)[nH]n2)C(=O)Nc2ccc(C(F)F)c(F)c2)cn1` [Example 206, 3-(4-(difluoromethyl)-3-fluorophenyl)-1-(2-methoxypyrimidin-5-yl)-1-((5-(trifluoromethyl)-1H-pyrazol-3-yl)methyl)urea], the concentration for half-maximal inhibition (IC50) in series [1] turned out to be 180 nM. For the same compound, in series [2], the CC50 at 65 h is over 100000 nM and the viability at 65 h, 100 µM was found to be 89.6%.

`COc1ncc(N(Cc2n[nH]c(C(F)(F)F)c2C(C)(C)O)C(=O)Nc2ccc(F)c(C(F)F)c2)cn1` [Example 207, 3-(3-(difluoromethyl)-4-fluorophenyl)-1-((4-(2-hydroxypropan-2-yl)-5-(trifluoromethyl)-1H-pyrazol-3-yl)methyl)-1-(2-methoxypyrimidin-5-yl)urea]: in series [1], the IC50 was 740 nM. Besides, in series [2], the CC50 at 65 h is over 100000 nM and the viability at 65 h, 100 µM was 87.7%.

For `COc1ncc(N(Cc2cc(C#N)[nH]n2)C(=O)Nc2ccc(F)c(C(F)F)n2)cn1` [Example 212, 1-((5-cyano-1H-pyrazol-3-yl)methyl)-3-(6-(difluoromethyl)-5-fluoropyridin-2-yl)-1-(2-methoxypyrimidin-5-yl)urea], half-maximal inhibition in series [1] (IC50) required 210 nM. Further, in series [2], the CC50 at 65 h is over 100000 nM and the viability at 65 h, 100 µM amounted to 99.4%.

In turn, `COC12CC(N(Cc3cc(C(F)(F)F)[nH]n3)C(=O)Nc3ccc(F)c(C(F)F)c3)(C1)C2` [Example 213, 3-(3-(difluoromethyl)-4-fluorophenyl)-1-(3-methoxybicyclo[1.1.1]pentan-1-yl)-1-((5-(trifluoromethyl)-1H-pyrazol-3-yl)methyl)urea] came in with an IC50 in series [1] of 16 nM. For the same compound, in series [2], the CC50 at 65 h is over 100000 nM and the viability at 65 h, 100 µM was 63.1%.

As to `COC12CC(N(Cc3cc(C(F)(F)F)[nH]n3)C(=O)Nc3ccc(F)c(C(F)F)n3)(C1)C2` [Example 214, 3-(6-(difluoromethyl)-5-fluoropyridin-2-yl)-1-(3-methoxybicyclo[1.1.1]pentan-1-yl)-1-((5-(trifluoromethyl)-1H-pyrazol-3-yl)methyl)urea], inhibition in series [1] was half-maximal at 220 nM (IC50). In series [2], the 50% cytotoxic concentration (CC50) at 65 h is over 100000 nM and the viability at 65 h, 100 µM was determined as 76.8%.

Take `COc1ncc(N(Cc2cc(C#N)[nH]n2)C(=O)Nc2ccc(F)c(C(F)(F)F)c2)cn1` [Example 215, 1-((5-cyano-1H-pyrazol-3-yl)methyl)-3-(4-fluoro-3-(trifluoromethyl)phenyl)-1-(2-methoxypyrimidin-5-yl)urea]: in series [1], the IC50 is 20 nM. In addition, in series [2], the CC50 at 65 h is over 100000 nM and the viability at 65 h, 100 µM worked out at 67%.

For the compound `COc1ncc(N(Cc2cc(C(F)(F)F)[nH]n2)C(=O)Nc2cc(F)c(F)c(F)c2)cn1` [Example 219, 1-(2-methoxypyrimidin-5-yl)-1-((5-(trifluoromethyl)-1H-pyrazol-3-yl)methyl)-3-(3,4,5-trifluorophenyl)urea], the IC50 in series [1] worked out at 12 nM. Besides, in series [2], the CC50 at 65 h was over 100000 nM and the viability at 65 h, 100 µM was determined as 53.7%.
